Earlier results on 1 compound are cited in patent US5272138A, “Naturally occurring gangliosides containing de-N-acetyl-sialic acid and their applications as modifiers of cell physiology” (The Biomembrane Institute, priority 1990, dated 1993).

The conditions of this data set: compared with lysolecithin, Taketomi and Kawamura 1970.

The structures appear in SMILES notation.

Turning to `CCCCCCCCCCCCCC=CC(O)C(N)COC1OC(CO)C(OC2OC(CO)C(O)C(OC3(C(=O)O)CC(O)C(N)C(C(O)C(O)CO)O3)C2O)C(O)C1O` (stereo not shown), the hemolytic activity entry is “twice that of lysolecithin”.
